Test system: swine growth hormone secretagogue receptor (GHSR) Type I, clone 7-3, expressed transiently in COS-7 cells
Assay: 35S-labeled Compound A binding assay on crude membranes of transfected COS-7 cells

CC(C)(N)C(=O)N[C@H](COCc1ccccc1)C(=O)N1CCC2(CC1)CN(S(C)(=O)=O)c1ccccc12 [^35S-Compound A]
Kd (saturation binding of ^35S-Compound A, clone 7-3 expressed transiently in COS-7 cells, 20°C, 1 hr): ~0.2 nM

CC(C)(N)C(=O)N[C@H](COCc1ccccc1)C(=O)N1CCC2(CC1)CN(S(C)(=O)=O)c1ccccc12 [Compound A]
specific binding displaced (displacement of ^35S-Compound A binding by 50 nM unlabeled Compound A, 60 min): > 90%

Source: patent EP0876402B1, “GROWTH HORMONE SECRETAGOGUE RECEPTOR FAMILY” (MERCK & CO., INC., priority 1995, dated 1997)
